Results on one compound are retold here after patent US9399656B2, “Compound, method for producing same, and use of same” (Microbial Chemistry Research Foundation, priority 2011, dated 2016).

Common to all, as to type: cell-based, human
The test system of data set [1] is PGE2 production in SW982 cell. Nature of the data set: PGE2 production inhibitory action in bradykinin-stimulated SW982 cells (HTRF kit). The following applies: bradykinin 1 nM, 30 min, test substance 2 to 10,000 ng/mL, FIG. 5. Here is the method: The compound represented by the Structural Formula (A) was evaluated for a PGE2 production inhibitory action as follows.
A SW982 cell which is a human […] cell line (purchased from ATCC (American Type Culture Collection)) was suspended into DMEM/F12 (Dulbecco's Modified Eagle Medium: Nutrient Mixture F-12, manufactured by Thermo Fisher Scientific) containing 10% fetal bovine serum (manufactured by Nichirei Corporation), followed by inoculating into a 96-well culture plate at 1×10^4 cells/well and incubating overnight.
After the incubation overnight, the medium in the 96-well culture plate containing the SW982 cells was replaced with HEPES-HANKS buffer (manufactured by NISSUI PHARMACEUTICAL CO., LTD.). […] After incubating for 30 min, a culture supernatant was collected, followed by measuring a PGE2 concentration A in the culture supernatant using a kit based on a HTRF (Homogeneous Time-Resolved Fluorescence) method (62P2APEB, manufactured by Cisbio Bioassays).
As a negative control, a PGE2 concentration B was measured in the same manner as in the measurement of the PGE2 concentration in the system containing the test substance, except that neither the test substance nor bradykinin (inflammatory stimulating agent) was added. […]

For data set [2], the system named is PGI2 production in SW982 cell. Put plainly: PGI2 production inhibitory action (6-keto-PGF1α enzyme immunoassay) in bradykinin-stimulated SW982 cells. The following applies: bradykinin 1 nM, 30 min, test substance 14 to 10,000 ng/mL, FIG. 5. As for the experimental part:
The compound represented by the Structural Formula (A) was evaluated for a PGI2 production inhibitory action as follows. PGI2 is metabolized to 6-keto-PGF1α (6-keto-prostaglandin F1α) which is a stabilized metabolite. Therefore, a concentration of PGI2 produced can be determined by measuring a concentration of 6-keto-PGF1α.
A SW982 cell which is human […] cell line (purchased from ATCC) was suspended into DMEM/F12 (manufactured by Thermo Fisher Scientific) containing 10% fetal bovine serum (manufactured by Biowest), followed by inoculating into a 96-well culture plate at 1×10^4 cells/well and incubating overnight. […]
As a negative control, a 6-keto-PGF1α concentration E was measured in the same manner as in the measurement of the 6-keto-PGF1α concentration in the system containing the test substance, except that neither the test substance nor bradykinin (inflammatory stimulating agent) was added.
As a positive control, a 6-keto-PGF1α concentration F was measured in the same manner as in the measurement of the 6-keto-PGF1α concentration in the system containing the test substance, except that the test substance was not added.
Based on the measurement result of 6-keto-PGF1α concentration in the each well, a 6-keto-PGF1α production rate was calculated according to the following Expression (2): 6-keto-PGF1α production rate (%)=(D−E)/(F−E)×100 Expression (2) […]

For the next data set, the system named is SW982 cell. Put plainly: Cytotoxicity test (Cell Counting Kit-8, cell proliferation rate). The following applies: SW982 cells, 48 hours. Here is the method: The compound represented by the Structural Formula (A) was evaluated for cytotoxicity as follows.
A SW982 cell (purchased from ATCC) at 2×10^3 cells/well was prepared with DMEM/F12 medium (manufactured by Thermo Fisher Scientific) containing 10% fetal bovine serum (manufactured by Nichirei Corporation), followed by inoculating into a 96-well culture plate so that each well contained 0.1 mL. At the same time, the test substance produced in Production Example 1 (the compound represented by the Structural Formula (A)) was added to each well at a concentration described in the following Table 1, followed by incubating for 48 hours under a condition of 37° C. and 5% CO2. After the incubation for 48 hours, 10 μL of a cytometric kit (CELL COUNTING KIT-8, manufactured by DOJINDO LABORATORIES) was added to the each well, followed by incubating for 2 hours. Then, an absorbance at 450 nm G was measured.
The cytometric kit allows living cells to develop a color. Accordingly, the higher absorbance at 450 nm is, the larger the number of living cells is, that is, cell proliferation is not affected. Therefore, based on the measurement result of absorbance in the each well, a cell proliferation rate was calculated according to the following Expression (3) to thereby evaluate an influence upon the cell proliferation: Cell proliferation rate (%)=G/H×100 Expression (3)
G denotes an absorbance at 450 nm in the system containing the test substance, and
H denotes an absorbance at 450 nm in the system containing no test substance (i.e., at a concentration of 0 nM in the following Table 1).
On the technique in general: Tetrazolium dyes change colour on reduction, which living cells bring about.

Regarding `COC1=C(C)C(=O)c2ccc(OC3OC(C)C(O)C(O)C3O)c(NNC(C)=O)c2C1=O` (stereo not shown) [Structural Formula (A)], the PGE2 production rate result in data set [1] was “decreased”. Further, the 6-keto-PGF1α production rate result in data set [2] was “decreased”. Further, the “Cell proliferation rate (%)” value in the data set with SW982 cell (concentration 111 nM) was determined as 100%; in the data set on SW982 cell (concentration 333 nM) it was 103%; in the data set with SW982 cell (concentration 10,000 nM), 111%; in the data set on SW982 cell (concentration 30,000 nM), 95%. In addition, in the data set on SW982 cell (up to 30,000 nM (Table 1)), the “Effect on cell proliferation of the SW982 cell” value is “not to affect cell proliferation”.
